Assay results reported in patent US20060069132A1, “Azolecarboxamide herbicides” (priority 2004, published 2006).

Assays:
barnyardgrass [1] = assay: Test A pre-/postemergence herbicide test; format: in vivo, Echinochloa crus-galli
Procedure, shortened: (§1)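 Sandy loam soil given preemergence directed spray; plants at 2 to 10 cm, one- to two-leaf stage, sprayed to runoff postemergence, compounds in non-phytotoxic solvent with surfactant. Injury rated visually versus untreated controls after about ten greenhouse days, 0 (no effect) to 100 (complete control); dash means not tested.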

large crabgrass [2] = assay: Test A pre-/postemergence herbicide test; format: in vivo, Digitaria sanguinalis
Procedure, shortened: as §1

giant foxtail [3] = assay: Test A pre-/postemergence herbicide test; format: in vivo, Setaria faberi
Procedure, shortened: as §1

morningglory [4] = assay: Test A pre-/postemergence herbicide test; format: in vivo, Ipomoea spp.
Procedure, shortened: as §1

redroot pigweed = assay: Test A pre-/postemergence herbicide test; format: in vivo, Amaranthus retroflexus
Procedure, shortened: as §1

velvetleaf [5] = assay: Test A pre-/postemergence herbicide test; format: in vivo, Abutilon theophrasti
Procedure, shortened: as §1

barnyardgrass [6] = assay: Test B pre-/postemergence herbicide test; format: in vivo, Echinochloa crus-galli; conditions: for Barnyardgrass plant response rating: postemergence
Procedure, shortened: (§2)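 Pre: seeds sown, then sprayed. Post: 1–4-leaf plants (2–18 cm) sprayed at the same time. Paddy: flooded, treated at 2-leaf stage. Formulation: non-phytotoxic solvent with surfactant. Greenhouse 13–15 days; visual 0–100 score relative to controls.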

Surinam grass = assay: Test B pre-/postemergence herbicide test; format: in vivo, Urochloa decumbens; conditions: for Surinam Grass plant response rating: postemergence
Procedure, shortened: (§3)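 Herbicidal effect was judged by eye on a 0–100 scale after plants stood 13 to 15 days in the greenhouse following pre- or postemergence treatment with surfactant-containing formulations.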

cocklebur = assay: Test B pre-/postemergence herbicide test; format: in vivo, Xanthium strumarium; conditions: for Cocklebur plant response rating: postemergence
Procedure, shortened: as §2

corn = assay: Test B pre-/postemergence herbicide test; format: in vivo, Zea mays; conditions: for Corn plant response rating: postemergence
Procedure, shortened: as §3

large crabgrass [7] = assay: Test B pre-/postemergence herbicide test; format: in vivo, Digitaria sanguinalis; conditions: for Crabgrass, Large plant response rating: postemergence
Procedure, shortened: as §3

giant foxtail [8] = assay: Test B pre-/postemergence herbicide test; format: in vivo, Setaria faberi; conditions: for Foxtail, Giant plant response rating: postemergence
Procedure, shortened: as §3

lambsquarters = assay: Test B pre-/postemergence herbicide test; format: in vivo, Chenopodium album; conditions: for Lambsquarters plant response rating: postemergence
Procedure, shortened: as §3

morningglory [9] = assay: Test B pre-/postemergence herbicide test; format: in vivo, Ipomoea coccinea; conditions: for Morningglory plant response rating: postemergence
Procedure, shortened: as §2

pigweed = assay: Test B pre-/postemergence herbicide test; format: in vivo, Amaranthus retroflexus; conditions: for Pigweed plant response rating: postemergence
Procedure, shortened: as §3

rice [10] = assay: Test B pre-/postemergence herbicide test; format: in vivo, Oryza sativa; conditions: 0 = no effect, 100 = complete control, preemergence
Procedure, shortened: as §3

velvetleaf [11] = assay: Test B pre-/postemergence herbicide test; format: in vivo, Abutilon theophrasti; conditions: for Velvetleaf plant response rating: postemergence
Procedure, shortened: as §3

blackgrass = assay: Test B postemergence herbicide test; format: in vivo, Alopecurus myosuroides; conditions: postemergence
Procedure, shortened: (§4)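 Read-out: visual comparison with controls, scored 0 to 100, where 100 means complete control and 0 no effect. Formulated chemicals were applied postemergence to plants 2–18 cm tall (1- to 4-leaf), or to flooded-paddy plants at the 2-leaf stage, then held 13 to 15 days under glass.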

wheat = assay: Test B postemergence herbicide test; format: in vivo, Triticum aestivum; parameters: key to Wheat plant response rating: 0 = no effect, 100 = complete control; conditions: postemergence
Procedure, shortened: (§5)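 Postemergence plants were sprayed with formulated test chemicals at 2 to 18 cm height (1- to 4-leaf stage); paddy species were grown to the 2-leaf stage. After 13 to 15 days in a greenhouse, injury was rated visually against untreated controls on a 0–100 scale (0 = no effect, 100 = complete control).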

wild oat = assay: Test B postemergence herbicide test; format: in vivo, Avena fatua; conditions: postemergence
Procedure, shortened: as §5

rice [12] = assay: Test B flooded paddy test; format: in vivo, Oryza sativa; conditions: 1000 g ai/ha, scale 0 to 100 (0 no effect, 100 complete control)
Procedure, shortened: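 Treated at 2-leaf (paddy) or 1–4-leaf, 2–18 cm (postemergence); greenhouse 13–15 d; visual score vs control, 0 none to 100 complete control; dash = not tested.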

[13] = test system: small flower umbrella sedge; assay: Test B flooded paddy test; format: in vivo, Cyperus difformis; conditions: 1000 g ai/ha, scale 0 to 100 (0 no effect, 100 complete control)
Procedure, shortened: as §4

ducksalad = assay: Test B flooded paddy test; format: in vivo, Heteranthera limosa; conditions: 1000 g ai/ha, scale 0 to 100 (0 no effect, 100 complete control)
Procedure, shortened: as §4

barnyardgrass [14] = assay: Test B flooded paddy test; format: in vivo, Echinochloa crus-galli; conditions: 1000 g ai/ha, scale 0 to 100 (0 no effect, 100 complete control)
Procedure, shortened: as §4

[15] = Postemergence, 500 g ai/ha, 0 to 100 scale, 0 no effect, 100 complete control
[16] = Postemergence, 2000 g ai/ha, 0 to 100 scale, 0 no effect, 100 complete control
[17] = Preemergence, 2000 g ai/ha, visual rating, 0 to 100 scale (0 no effect, 100 complete control)
[18] = preemergence, 500 g ai/ha, visual injury, 0 to 100 scale (0 no effect, 100 complete control)
[19] = 125 g ai/ha, 0 = no effect, 100 = complete control, preemergence
[20] = 500 g ai/ha, visual rating, 0 = no effect, 100 = complete control, preemergence
[21] = 125 g ai/ha, visual rating, scale 0 (no effect) to 100 (complete control)
[22] = 500 g ai/ha, scale 0 to 100, 0 is no effect, 100 is complete control

## CCn1nc(C(C)(C)C)cc1C(=O)Nc1nc(C(=O)N(C)C)ccc1F [Compound 277]
Barnyardgrass [1]; [15]
  Barnyardgrass plant response rating: 0
Barnyardgrass [1]; [16]
  Plant response rating, Barnyardgrass: 50
Barnyardgrass [1]; [17]
  Barnyardgrass plant response rating: 70
Barnyardgrass [1]; [18]
  Barnyardgrass plant response rating: 0
Large crabgrass [2]; [15]
  Crabgrass, Large plant response rating: 0
Large crabgrass [2]; [16]
  Plant response rating, Crabgrass, Large: 0
Large crabgrass [2]; [17]
  Crabgrass, Large plant response rating: 25
Large crabgrass [2]; [18]
  Crabgrass, Large plant response rating: 0
Giant foxtail [3]; [15]
  Foxtail, Giant plant response rating: 0
Giant foxtail [3]; [16]
  Plant response rating, Foxtail, Giant: 0
Giant foxtail [3]; [17]
  Foxtail, Giant plant response rating: 55
Giant foxtail [3]; [18]
  Foxtail, Giant plant response rating: 0
Morningglory [4]; [15]
  Morningglory plant response rating: 0
Morningglory [4]; [16]
  Plant response rating, Morningglory: 0
Morningglory [4]; [17]
  Morningglory plant response rating: 0
Morningglory [4]; [18]
  Morningglory plant response rating: 0
Redroot pigweed; [15]
  Pigweed plant response rating: 10
Redroot pigweed; [16]
  Plant response rating, Pigweed: 35
Redroot pigweed; [17]
  Pigweed plant response rating: 70
Redroot pigweed; [18]
  Pigweed plant response rating: 40
Velvetleaf [5]; [15]
  Velvetleaf plant response rating: 25
Velvetleaf [5]; [16]
  Plant response rating, Velvetleaf: 30
Velvetleaf [5]; [17]
  Velvetleaf plant response rating: 45
Velvetleaf [5]; [18]
  Velvetleaf plant response rating: 5
Barnyardgrass [6]; [19]
  Barnyardgrass plant response rating (0 to 100 scale): 0
Barnyardgrass [6]; [20]
  Plant response rating, Barnyardgrass: 0
Barnyardgrass [6]; [21]
  Barnyardgrass plant response rating: 0
Barnyardgrass [6]; [22]
  Barnyardgrass plant response rating: 0
Surinam grass; [19]
  Surinam Grass plant response rating (0 to 100 scale): 0
Surinam grass; [20]
  Plant response rating, Surinam Grass: 0
Surinam grass; [21]
  Surinam Grass plant response rating: 0
Surinam grass; [22]
  Surinam Grass plant response rating: 0
cocklebur; [19]
  Cocklebur plant response rating (0 to 100 scale): 0
cocklebur; [20]
  Plant response rating, Cocklebur: 10
cocklebur; [21]
  Cocklebur plant response rating: 0
cocklebur; [22]
  Cocklebur plant response rating: 0
corn; [19]
  Corn plant response rating (0 to 100 scale): 0
corn; [20]
  Plant response rating, Corn: 0
corn; [21]
  Corn plant response rating: 0
corn; [22]
  Corn plant response rating: 10
Large crabgrass [7]; [19]
  Crabgrass, Large plant response rating (0 to 100 scale): 0
Large crabgrass [7]; [20]
  Plant response rating, Crabgrass, Large: 0
Large crabgrass [7]; [21]
  Crabgrass, Large plant response rating: 0
Large crabgrass [7]; [22]
  Crabgrass, Large plant response rating: 0
Giant foxtail [8]; [19]
  Foxtail, Giant plant response rating (0 to 100 scale): 0
Giant foxtail [8]; [20]
  Plant response rating, Foxtail, Giant: 0
Giant foxtail [8]; [21]
  Foxtail, Giant plant response rating: 0
Giant foxtail [8]; [22]
  Foxtail, Giant plant response rating: 0
lambsquarters; [19]
  Lambsquarters plant response rating (0 to 100 scale): 40
lambsquarters; [20]
  Plant response rating, Lambsquarters: 80
lambsquarters; [21]
  Lambsquarters plant response rating: 20
lambsquarters; [22]
  Lambsquarters plant response rating: 30
Morningglory [9]; [19]
  Morningglory plant response rating (0 to 100 scale): 0
Morningglory [9]; [20]
  Plant response rating, Morningglory: 0
Morningglory [9]; [21]
  Morningglory plant response rating: 0
Morningglory [9]; [22]
  Morningglory plant response rating: 20
pigweed; [19]
  Pigweed plant response rating (0 to 100 scale): 60
pigweed; [20]
  Plant response rating, Pigweed: 100
pigweed; [21]
  Pigweed plant response rating: 0
pigweed; [22]
  Pigweed plant response rating: 10
Rice [10]; 125 g ai/ha
  Rice plant response rating (0 to 100 scale): 0
Rice [10]; 500 g ai/ha, visual rating
  Plant response rating, Rice: 20
Velvetleaf [11]; [19]
  Velvetleaf plant response rating (0 to 100 scale): 0
Velvetleaf [11]; [20]
  Plant response rating, Velvetleaf: 40
Velvetleaf [11]; [21]
  Velvetleaf plant response rating: 20
Velvetleaf [11]; [22]
  Velvetleaf plant response rating: 20
blackgrass; [21]
  Blackgrass plant response rating: 10
blackgrass; [22]
  Blackgrass plant response rating: 20
wheat; [21]
  Wheat plant response rating: 20
wheat; [22]
  Wheat plant response rating: 20
Wild oat; [21]
  Oat, Wild plant response rating: 10
Wild oat; [22]
  Oat, Wild plant response rating: 20
Rice [12]
  Rice plant response rating: 0
[13]
  Sedge, Umbrella plant response rating: 0
ducksalad
  Ducksalad plant response rating: 0
Barnyardgrass [14]
  Barnyardgrass plant response rating: 0
